Among the data in patent US20040127492A1 (Pharmacia Corporation, priority 2002, published 2004) are IC50 values, retold here.

In one assay the target is MAPKAPK2 (MK-2) (Homo sapiens, UniProt P49137). The assay is described as follows: Determination of MK-2 IC50 (HSP-peptide phosphorylation, anion exchange resin capture assay). It is filed as biochemical. Put shortly: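 MAPKAPK2, preactivated by p38α with 0.25 mM ATP for 1 h at 30° C, used at 15 nM to phosphorylate HSP-peptide with 0.03 mM ATP plus [γ33P]ATP, pH 7.5, 2% DMSO, 30 min at 30° C. Labelled peptide counted after anion-exchange resin capture; IC50 from six ten-fold dilutions, triplicate.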
MAPKAPK2 (MK-2), sequence (P49137 whole entry, species assumed): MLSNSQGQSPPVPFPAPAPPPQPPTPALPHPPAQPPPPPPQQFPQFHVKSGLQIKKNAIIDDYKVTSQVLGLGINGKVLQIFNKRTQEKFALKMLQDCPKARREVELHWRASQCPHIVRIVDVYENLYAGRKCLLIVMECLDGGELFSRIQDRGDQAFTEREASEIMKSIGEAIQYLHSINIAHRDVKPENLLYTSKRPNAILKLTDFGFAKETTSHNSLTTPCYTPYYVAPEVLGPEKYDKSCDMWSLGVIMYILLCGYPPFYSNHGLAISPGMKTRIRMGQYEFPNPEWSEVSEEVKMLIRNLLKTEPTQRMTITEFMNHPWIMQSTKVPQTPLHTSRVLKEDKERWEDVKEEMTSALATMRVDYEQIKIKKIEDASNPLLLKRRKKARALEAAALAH

The target in a further assay is MK-3 (Homo sapiens, UniProt Q16644). The assay is described as follows: MK-3 inhibition IC50 (similar method to MK-2, with appropriate modifications). The format is biochemical. How it is done:
In practice, the selectivity of a cyclic pyrazole MK-2 inhibitor varies depending upon the condition under which the test is performed and on the inhibitors being tested. However, for the purposes of this specification, the selectivity of a cyclic pyrazole MK-2 inhibitor inhibitor can be measured as a ratio of the in vitro or in vivo IC50 value for inhibition of MK-3, divided by the IC50 value for inhibition of MK-2 (IC50 MK-3/IC50 MK-2). […] The MK-2 or MK-3 inhibiting activity of any of the compounds described herein can be determined by any one of several methods that are well known to those having skill in the art of enzyme activity testing. […] A similar method, with appropriate modifications, Can be used to measure MK-3 inhibitory activity. In addition, the efficacy of one of the present MK-2 inhibiting compounds in therapeutic applications can be determined by testing for inhibition of TNFα production in cell culture and in animal model assays.

Setting [1] is: Table 1, phenoxypyrazole MK-2 inhibitors, read-out: MK-2 Avg, IC50.
The mark [2] stands for this setting: Table 1, phenoxypyrazole MK-2 inhibitors, read-out: MK-3 Avg. IC50.
[3] abbreviates: Table 2, pyrazolylpyrazole MK-2 inhibitors, read-out: MK-2 Avg. IC50.
The mark [4] stands for this setting: Table 2, pyrazolylpyrazole MK-2 inhibitors, read-out: MK-3 Avg. IC50.

Read-outs that look alike come from different tables or passages of the source.

MK-3, sequence (Q16644 whole entry, species assumed): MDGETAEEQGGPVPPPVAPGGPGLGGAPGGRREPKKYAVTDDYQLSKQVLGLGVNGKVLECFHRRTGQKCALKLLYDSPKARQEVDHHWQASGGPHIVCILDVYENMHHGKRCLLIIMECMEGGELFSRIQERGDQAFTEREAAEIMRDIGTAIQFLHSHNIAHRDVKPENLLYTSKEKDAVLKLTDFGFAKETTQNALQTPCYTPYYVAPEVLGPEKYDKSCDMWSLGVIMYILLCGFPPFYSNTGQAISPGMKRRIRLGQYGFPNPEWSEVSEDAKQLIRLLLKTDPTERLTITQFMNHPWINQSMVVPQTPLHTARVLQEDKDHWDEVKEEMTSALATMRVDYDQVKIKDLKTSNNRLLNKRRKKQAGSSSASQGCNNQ

Consider `O=C1NC(CO)Cn2nc3c(c21)CCc1cnc(-c2cnc4ccccc4c2)cc1-3` (stereo not shown) [Example 9], for which the IC50 (usually the concentration needed to halve the response being measured) came to 0.0313 µM at MAPKAPK2 (MK-2) (read-out: MK-2 Avg. IC50) and 5.68 µM on MK-3 (read-out: MK-3 Avg. IC50).
As to `Cc1noc(C)c1-c1cc2c(cc1O)CCc1c-2nn(CCCN)c1C(=O)O` [Example 55], the IC50 on MAPKAPK2 (MK-2) (setting [1]) turned out to be 136 µM; on MK-3 (setting [2]), 169 µM.
Turning to `O=C(O)c1c2c(nn1CCCNCCCc1ccc(Cl)cc1)-c1ccncc1CC2` [Example 52], the 50% inhibitory concentration (IC50) turned out to be 0.479 µM on MAPKAPK2 (MK-2) (read-out: MK-2 Avg. IC50) and 34.3 µM on MK-3 (read-out: MK-3 Avg. IC50).
In the case of `N#Cc1ccc(CCCNCCCn2nc3c(c2C(=O)O)CCc2cnccc2-3)cc1` [Example 58], the results for the IC50 at MAPKAPK2 (MK-2) (read-out: MK-2 Avg. IC50) and on MK-3 (read-out: MK-3 Avg. IC50) were 0.561 µM and 44.3 µM, respectively.
The like results for `NCCCn1nc2c(c1C(=O)O)CCc1cnc(-c3ccc(O)cc3)cc1-2` [Example 3] were, in that order, 0.0189 µM and 0.361 µM.
Take `NC(=O)c1nn(CCO)c2c1CCc1[nH]ncc1-2` [Example 23]: the IC50 on MAPKAPK2 (MK-2) (setting [3]) was 72.2 µM; at MK-3 (setting [4]), at least 200 µM.
For `CCOC(=O)c1nn(-c2ccccc2)c2c1CCc1cc(OC)c(OC)cc1-2` [Example 168], the IC50 at MAPKAPK2 (MK-2) (setting [1]) and at MK-3 (setting [2]) was above 200 µM each time.
On to `NCCCn1nc2c(c1C(=O)O)CCc1cnc(-c3cnc4ccccc4c3)nc1-2` [Example 1], for which the half-maximal inhibitory concentration (IC50) is 0.0761 µM at MAPKAPK2 (MK-2) (Table 4, pyrimidylpyrazole MK-2 inhibitors, read-out: MK-2 Avg. IC50) and 1.93 µM on MK-3 (Table 4, pyrimidylpyrazole MK-2 inhibitors, read-out: NK-3 Avg. IC50).
For the compound `O=C(O)c1nn(C2CCN(C(=O)OCc3ccccc3)CC2)c2c1CCc1c-2cnn1C(c1ccccc1)(c1ccccc1)c1ccccc1` [Example 19], the IC50 on MAPKAPK2 (MK-2) (setting [3]) was 46.5 µM; on MK-3 (setting [4]) it was at least 200 µM.
For `COc1ccc2c(c1)CCc1c(C(N)=O)nn(-c3ccc(S(N)(=O)=O)cc3)c1-2` [Example 179], the IC50 on MAPKAPK2 (MK-2) (setting [1]) and at MK-3 (setting [2]) was above 200 µM in each case.
Consider `O=C(O)c1nn(CC(F)(F)F)c2c1CCc1[nH]ncc1-2` [Example 42], for which the 50% inhibitory concentration (IC50) is 180 µM on MAPKAPK2 (MK-2) (setting [3]) and at least 200 µM at MK-3 (setting [4]).
The like results for `O=C(O)c1c2c(nn1CC(F)(F)F)-c1cn[nH]c1CC2` [Example 41] were, in that order, 150 µM and at least 200 µM.
In the case of `N#Cc1cccc(-c2cc3c(cc2O)CCc2c-3nn(CCCN)c2C(=O)O)c1` [Example 10], the IC50 on MAPKAPK2 (MK-2) (setting [1]) was found to be 5.35 µM; at MK-3 (setting [2]), 168 µM.
For `COc1ccc(-c2cc3c(cn2)CCc2c-3nn3c2C(=O)NCCC3)cc1` [Example 25], the IC50 is 0.142 µM at MAPKAPK2 (MK-2) (read-out: MK-2 Avg. IC50) and 6.52 µM at MK-3 (read-out: MK-3 Avg. IC50).
The like results for `O=C1NCCCn2nc3c(c21)CCc1cnc(Nc2ccccc2)cc1-3` [Example 131] were, in that order, 4.68 µM and 25.2 µM.
As for `CC1Cc2c(nn(CCCN)c2C(=O)O)-c2ccc(O)cc21` (stereo not shown) [Example 14], the half-maximal inhibitory concentration (IC50) is 10.7 µM at MAPKAPK2 (MK-2) (setting [1]) and above 200 µM at MK-3 (setting [2]).
`O=C(O)c1c2c(nn1C1CCNCC1)-c1cn[nH]c1CC2` [Example 21]: the IC50 on MAPKAPK2 (MK-2) (setting [3]) is 60.4 µM; at MK-3 (setting [4]), at least 200 µM.
Regarding `COc1ccccc1-c1cc2c(cn1)CCc1c-2nn(CCCN)c1C(=O)O` [Example 66], the concentration for half-maximal inhibition (IC50) on MAPKAPK2 (MK-2) (read-out: MK-2 Avg. IC50) was 0.632 µM; on MK-3 (read-out: MK-3 Avg. IC50), 6.87 µM.
As for `O=C(O)c1c2c(nn1CCCNS(=O)(=O)Cc1ccccc1)-c1cc(-c3cnc4ccccc4c3)ncc1CC2` [Example 48], the IC50 turned out to be 0.374 µM on MAPKAPK2 (MK-2) (read-out: MK-2 Avg. IC50) and 4.51 µM at MK-3 (read-out: MK-3 Avg. IC50).
On to `CCOC(=O)c1[nH]nc2c1CCc1c-2cnn1CCO` [Example 69], for which the IC50 at MAPKAPK2 (MK-2) (setting [3]) and on MK-3 (setting [4]) was at least 200 µM in each case.
In the case of `O=C(O)c1c2c(nn1CCCNCCc1ccc(-c3cccc(C(F)(F)F)c3)cc1)-c1ccncc1CC2` [Example 21], the half-inhibitory concentration (IC50) on MAPKAPK2 (MK-2) (read-out: MK-2 Avg. IC50) stood at 0.103 µM; at MK-3 (read-out: MK-3 Avg. IC50) it was 10.4 µM.
For the compound `CC(C)(C)OC(=O)NCCn1nc2c(c1C(=O)O)CCc1c-2cnn1C(c1ccccc1)(c1ccccc1)c1ccccc1` [Example 38], the IC50 at MAPKAPK2 (MK-2) (setting [3]) is 139 µM; on MK-3 (setting [4]), at least 200 µM.
For `COC(=O)c1c2c(nn1CCCNC(=O)OC(C)(C)C)-c1cc(Br)c(OC)cc1CC2` [Example 184], the IC50 at MAPKAPK2 (MK-2) (setting [1]) and at MK-3 (setting [2]) was above 200 µM each time.
With `NCCCn1nc2c(c1C(N)=O)CCc1cnc(-c3cnc4ccccc4c3)cc1-2` [Example 51], the IC50 on MAPKAPK2 (MK-2) (read-out: MK-2 Avg. IC50) amounted to 0.473 µM; at MK-3 (read-out: MK-3 Avg. IC50), 9.21 µM.
`NCCn1nc2c(c1C(=O)O)CCc1cc(O)c(-c3cccc([N+](=O)[O-])c3)cc1-2` [Example 2]: the concentration for half-maximal inhibition (IC50) at MAPKAPK2 (MK-2) (setting [1]) came to 0.845 µM; at MK-3 (setting [2]), 40.9 µM.
As to `COc1cccc(/C=C/c2cc3c(cn2)CCc2c-3nn3c2C(=O)NCC3)c1` [Example 5], the IC50 at MAPKAPK2 (MK-2) (Table 5, other cyclic pyrazole MK-2 inhibiting compounds, read-out: MK-2 Avg. IC50) was found to be 0.328 µM; on MK-3 (Table 5, other cyclic pyrazole MK-2 inhibiting compounds, read-out: MK-3 Avg. IC50) it was 11.8 µM.
